# Source: US11590092B2, “Skin probiotic” (The Regents of the University of California, priority 2014, dated 2023)
# “Also recorded” adds a separate entry of the source.
# Assays:
# [1] = system: USA300; assay: MBC assay against USA300; assay type: cell-based, Staphylococcus aureus
# Procedure: To determine the MBC of propionic acid, USA300 (10^6 CFU/ml) were incubated with propionic acid at various concentrations (1.25-100 mM in PBS) as indicated in each individual experiment in media on a 96-well microplate (100 μl per well) overnight. The control received only PBS. After incubation, the bacteria were diluted 1:10-1:10^6 with PBS. […] To determine the pH effect on the bacterial growth, USA300 in TSB was incubated with 2.5 mM propionic acid on a 96-well microplate (100 μl per well) overnight before spotting on an agar plate.
# To determine the minimal bactericidal concentration (MBC) and minimal fungicidal concentration (MFC) of propionic acid, microorganisms (10^6 colony forming units (cfu)/ml) were incubated overnight in media with propionic acid (1.25-2,000 mM) in a 96-well microplate (100 μl per well). The control only received PBS. After incubation, the microorganisms were diluted 1:10-1:10^6 into PBS. […]
# [2] = system: USA300; assay: In vivo skin wound infection with USA300; set-up: species or system ICR mice; conditions: for USA300 colonization / growth in the skin lesions: vs controls
# Procedure: ICR mice (2-3-month-old female) were anesthetized by isoflurane. In each experiment, there were five mice per group. A wound 5 mm in length was made on the dorsal skin after shaving with electrical clippers. Once the skin wound was created, 5 μl of propionic acid (100 mM), PBS (pH 7.1) or PBS (pH 3.5) was applied topically to the wounded areas. The wounds were left uncovered throughout the experimental period. For bacterial infection, USA300 (2×10^6 CFU in PBS) was applied topically to the wounded areas 10 min after application of propionic acid or PBS. For the measurement of the extent of wound closure, a transparent parafilm was put on the top of the wounded skin. The wound area was marked on the parafilm by drawing an area which covered the whole skin wound. The lesion size was measured daily for 8 days was calculated using the ImageJ software [National Institutes of Health (NIH), Bethesda, Md., USA] and expressed as mm^2. Student's t-test was used to determine the significance of the differences between groups of the PBS (pH 7.1)- and propionic acid-treated mice as well as the PBS (pH 7.1)- and PBS (pH 3.5)-treated mice. Data represent the mean±SD from three independent experiments. All experiments using mice were conducted in a Biosafety Level 2 (BSL-2) facility and with accordance to institutional guidelines for animal experiments.
# The USA300-infected skins treated with propionic acid and its controls were cross-sectioned, stained with hematoxylin and eosin (H&E) (Sigma, St. Louis, Mo.), and viewed on a Bx51 research microscope (Olympus, Melville, N.Y., USA). To determine the bacterial number in infected skin, the whole area of infected skin was excised 72 h after bacterial application. The excised skin was homogenized in 200 μl of sterile PBS with a hand tissue grinder. Bacterial CFUs in the skin were enumerated by plating serial dilutions (1:10^1-1:10^6) of the homogenate on a TSB agar plate. The plate was incubated for 24 h at 37° C. to count colonies.
# ICR mice (2-3 month-old females; Harlan Labs, Placentia, Calif., USA) were anesthetized by isoflurane. A 5 mm wounds were made on the dorsal skin following shaving with electrical clippers. Following skin wounding, 5 μl of filter sterilized media obtained by incubating P. acnes (10^5 CFU/ml in 10 ml) with/without glycerol for 17 days or 5 μl of media with glycerol (control) were applied and to the wounded areas. To determine if propionic acid can prevent or mitigate the MRSA infection, 5 μl of 100 mM propionic acid was applied to the wounded areas. Application of PBS/pH (pH 3.5, corresponding to pH for 100 mM propionic acid) or PBS (pH 7.1) to the wounded areas served as controls. The wounds were left uncovered throughout the experimental period. USA300 (2×10^6 CFU in 5 μl PBS) was then applied to the wounds 10 min after application of various media, propionic acid or PBS controls. To measure the extent of wound closure, a transparent parafilm was placed over the wounded skin and the area was marked by outlining the area of the wound. The lesion size (mm^2) was measured daily for 8 days then calculated with ImageJ software (NIH, Bethesda, Md., USA). Five mice per group per experiments were used. A Student's t-test was used to determine the significance of the differences between groups. Data represent the mean±SD from three independent experiments. All experiments using mice were conducted in a biosafety level 2 (BSL-2) facility and in accordance with institutional guidelines for animal experiments. To determine the bacterial counts in infected skin, the infected skin was excised 72 h following bacterial application. The excised skin was weighted and homogenized in 200 μl of sterile PBS with a tissue grinder. Bacterial CFUs in the skin were enumerated by plating serial dilutions (1:10^1-1:10^6) of the homogenate on a TSB agar plate. The plate was incubated for 24 h at 37° C. to count colonies. […]
# [3] = system: C. albicans; assay: Radial diffusion assay against C. albicans; assay type: cell-based, Candida albicans
# Procedure: A radial diffusion assay (RDA) was performed as follows. Briefly, microorganisms in the mid-log phase were centrifuged at 12,000×g for 10 min, washed with PBS, and dispersed (10^5 cfu/ml) in agar consisting of 1% (w/v) agarose (Sigma) and 3% (w/v) culture medium in PBS at 42° C. Then, the agar was poured into Petri dishes and solidified. Wells (diameter 3 mm and volume 30 μl) were created by poking a pipette tip into the semi-solidified agar. Propionic acid was serially diluted in PBS to concentrations ranging from 5 to 2,000 mM, and 30 μl aliquots were added to the wells; PBS served as the control. After 3 h of incubation, a 10 ml overlay gel composed of 3% culture medium and 1% agarose was poured onto the plates, where after the plates were incubated overnight and examined for zones of growth inhibition.
# [4] = system: S. aureus strains ATCC29247 and CMCC(B)26003; assay: Inhibition of other S. aureus strains; assay type: cell-based, Staphylococcus aureus
compound,measurement,setting,value
CCC(=O)O [propionic acid],antimicrobial activity against USA300,[1]; 25 mM,excellent antimicrobial activity
same,bacterial numbers of USA300,"[1]; 25 mM propionic acid (pH 5.8), 24 h, USA300 10^6 CFU",4.9±0.2×10^4 CFU/ml
same,antimicrobial activity against USA300 after buffering,[1]; 25 mM propionic acid (pH 6.8) buffered with ammonium hydroxide,remained
same,concentration that completely killed USA300,[1]; MBC test,greater than or equal to 100 mM
same,concentration that effectively suppressed the growth of USA300,"[1]; MBC test, more than 1 log10 reduction",greater than 25 mM
same,concentration that completely killed USA300,"[1]; MBC test, listed as Propionic acid",greater than 100 mM
same,MBC,"[1]; Staphylococcus aureus, in TSB, USA300 10^6 CFU/ml, overnight",25 mM
same,concentration for a complete growth inhibition of USA300,"[1]; dissolved in 4% dimethyl sufoxide, overnight",100 Mm
same,MBC (>1 log10 inhibition) against USA300,"[1]; dissolved in 4% dimethyl sufoxide, overnight, 0-100 mM",25 mM
same,sizes of USA300-infected skin lesions,"[2]; topical 100 mM propionic acid 10 min before USA300 (2×10^6 CFU), vs PBS",considerably decreased; also recorded: significantly reduced
same,bacterial numbers in USA300-infected lesions,"[2]; topical 100 mM propionic acid, three days after bacterial application (FIG. 10F)",6.9±0.7×10^7 CFU
same,bacterial numbers in USA300-infected lesions,"[2]; topical 100 mM propionic acid, three days after bacterial application (FIG. 11F)",1.4±1.4×10^7 CFU/g
same,histological observation (H&E) of inflammatory response in wounds,"[2]; topical 100 mM propionic acid, vs PBS-treated wounds",less pronounced inflammatory response; also recorded: attenuated inflammatory response
same,USA300 colonization / growth in the skin lesions,[2]; topical 100 mM propionic acid,considerably decreased
same,USA300 colonization / growth in the skin lesions,"[2]; topical 100 mM propionic acid, listed as Propionic acid",significantly decreased
same,"minimum effective concentration for growth inhibition zones, C. albicans",[3],10 mM
same,inhibition of S. aureus strains besides USA300,[4],inhibit
